# Data: patent EP2435433B1, “(DIHYDRO)IMIDAZOISO[5,1-A]QUINOLINES AS FSH RECEPTOR AGONISTS FOR THE TREATMENT OF FERTILITY DISORDERS” (Merck Sharp & Dohme B.V., priority 2009, dated 2010)
# Target: T1, human FSH receptor (Homo sapiens, UniProt P23945)
# T1 construct: expressed in transfected cells; host or cells: Chinese Hamster Ovary (CHO) cells, stably transfected, cotransfected with CRE/promotor-firefly luciferase reporter
# T1 sequence (P23945 18-695): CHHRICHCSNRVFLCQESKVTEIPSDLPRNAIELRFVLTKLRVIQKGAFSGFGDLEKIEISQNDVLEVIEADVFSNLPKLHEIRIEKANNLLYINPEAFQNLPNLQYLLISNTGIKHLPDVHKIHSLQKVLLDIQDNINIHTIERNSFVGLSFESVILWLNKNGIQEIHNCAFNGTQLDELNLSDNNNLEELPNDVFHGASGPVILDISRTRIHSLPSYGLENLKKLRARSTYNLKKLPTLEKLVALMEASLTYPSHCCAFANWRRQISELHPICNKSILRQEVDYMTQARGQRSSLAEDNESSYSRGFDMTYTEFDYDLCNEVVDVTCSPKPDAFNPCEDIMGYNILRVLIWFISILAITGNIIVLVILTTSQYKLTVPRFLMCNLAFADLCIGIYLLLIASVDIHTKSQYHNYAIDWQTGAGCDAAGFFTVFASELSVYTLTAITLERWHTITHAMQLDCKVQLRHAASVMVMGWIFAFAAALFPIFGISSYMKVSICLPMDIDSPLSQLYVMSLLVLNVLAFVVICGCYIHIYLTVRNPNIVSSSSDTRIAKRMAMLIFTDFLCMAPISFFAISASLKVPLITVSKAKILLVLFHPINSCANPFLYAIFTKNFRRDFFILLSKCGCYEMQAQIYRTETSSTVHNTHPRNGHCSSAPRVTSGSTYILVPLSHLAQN
# Assay: Agonistic activity of compounds at the human FSH receptor expressed in CHO cells, CRE/luciferase reporter (hFSHRago (CHO luc))
# Assay type: cell-based
# Settings: CHO cells stably transfected with the human FSH receptor and CRE/firefly luciferase reporter; 4 hours of incubation; half-maximal stimulation relative to the compound's own maximal effect; read-out: hFSHRago (CHO luc) EC50
# Description: The term EC50 means the concentration of the test compound that elicits half-maximal (50 %) stimulation compared to the compound's maximally attainable effect. The values can be determined e.g. in a cell line transfected with a FSH receptor gene and cotransfected with a cAMP responsive element/promoter directing the expression of a reporter gene. Values can be determined using a software program such as MathIQ (version 2.0, ID Business Solutions Limited).
# Agonistic activity of the compounds at the human FSH receptor was determined in Chinese Hamster Ovary (CHO) cells stably transfected with the human FSH receptor and cotransfected with a cAMP responsive element (CRE)/promotor directing the expression of a firefly luciferase reporter gene. Binding of the compounds to the Gs protein-coupled FSH receptor will result in an increase of cAMP, which in turn will induce an increased transactivation of the luciferase reporter. Cells (7,500 cells/well of a 384 well plate) were incubated in Dulbecco' minimal essential F12 modified medium (Invitrogen), supplemented with 1 µg/ml bovine insulin, 5 µg/ml human apo-transferrin, 80 U/ml penicillin G and 80 µg/ml streptomycin with the test compounds (concentration between 0.0316 nM and 10.0 µM) in duplicate in a humidified atmosphere (95%) at 5-7% CO2 and 37°C. The final concentration of DMSO was 1%. After 4 hours of incubation, plates were allowed to adjust to room temperature for 1 hour. Then, Luclite (PerkinElmer) solution was added to the wells and cells were allowed to lyse for at least 1 hour at room temperature. Subsequently, luciferase activity was measured in a luminescence counter. The signal is expressed as counts per second (cps). The EC50 (concentration of the test compound that elicits half-maximal (50 %) luciferase stimulation compared to the compound's maximally attainable effect) and efficacy values (maximal effect of the test compound as percentage of the maximal effect of recombinant human FSH) of the compounds were determined using the software program MathIQ (version 2.0, ID Business Solutions Limited). EC50 data are indicated at the synthesis examples.
row,EC50,Compound
1,7 nM,"COc1cc2c(cc1OCCO)-c1c(-c3cccs3)nc(C(=O)N(C)C(C)(C)C)n1CC2 [Example 30c, 9-(2-Hydroxy-ethoxy)-8-methoxy-1-thiophen-2-yl-5,6-dihydro-imidazo[5,1-a]isoquinoline-3-carboxylic acid tert-butyl-methyl-amide]"
2,15 nM,"COc1cc2c(cc1OCCN=[N+]=[N-])-c1c(-c3cccs3)nc(C(=O)N(C)C(C)(C)C)n1CC2 [Example 30e, 9-(2-Azido-ethoxy)-8-methoxy-1-thiophen-2-yl-5,6-dihydro-imidazo[5,1-a]isoquinoline-3-carboxylic acid tert-butyl-methyl-amide]"
3,94 nM,"COc1cc2c(cc1OCCN)-c1c(-c3cccs3)nc(C(=O)N(C)C(C)(C)C)n1CC2 [Example 31, 9-(2-Amino-ethoxy)-8-methoxy-1-thiophen-2-yl-5,6-dihydro-imidazo[5,1-a]isoquinoline-3-carboxylic acid tert-butyl-methyl-amide]"
4,559 nM,"COc1cc2c(cc1OCCNC(C)=O)-c1c(-c3cccs3)nc(C(=O)N(C)C(C)(C)C)n1CC2 [Example 32, 9-(2-Acetylamino-ethoxy)-8-methoxy-1-thiophen-2-yl-5,6-dihydro-imidazo[5,1-a]isoquinoline-3-carboxylic acid tert-butyl-methyl-amide]"
5,142 nM,"COC(=O)NCCOc1cc2c(cc1OC)CCn1c(C(=O)N(C)C(C)(C)C)nc(-c3cccs3)c1-2 [Example 33, {2-[3-(tert-Butyl-methyl-carbamoyl)-8-methoxy-1-thiophen-2-yl-5,6-dihydro-imidazo[5,1-a]isoquinolin-9-yloxy]-ethyl}-carbamic acid methyl ester]"
6,19 nM,"COCOc1cc2c(cc1OC)CCn1c(C(=O)N(C)C(C)(C)C)nc(-c3cccs3)c1-2 [Example 35b, 8-Methoxy-9-methoxymethoxy-1-thiophen-2-yl-5,6-dihydro-imidazo[5,1-a]isoquinoline-3-carboxylic acid tert-butyl-methyl-amide]"
7,2 nM,"COc1cc2c(cc1C=C(C)C)-c1c(-c3cccs3)nc(C(=O)N(C)C(C)(C)C)n1CC2 [Example 36c, 8-Methoxy-9-(2-methyl-propenyl)-1-thiophen-2-yl-5,6-dihydro-imidazo[5,1-a]isoquinoline-3-carboxylic acid tert-butyl-methyl-amide]"
8,128 nM,"COc1cc2c(cc1Oc1ccccc1)-c1c(-c3cccs3)nc(C(=O)N(C)C(C)(C)C)n1CC2 [Example 42b, 8-Methoxy-9-phenoxy-1-thiophen-2-yl-5,6-dihydro-imidazo[5,1-a]isoquinoline-3-carboxylic acid tert-butyl-methyl-amide]"
9,447 nM,"COc1cccc(Oc2cc3c(cc2OC)CCn2c(C(=O)N(C)C(C)(C)C)nc(-c4cccs4)c2-3)c1 [Example 43b, 8-Methoxy-9-(3-methoxy-phenoxy)-1-thiophen-2-yl-5,6-dihydro-imidazo[5,1-a]isoquinoline-3-carboxylic acid tert-butyl-methyl-amide]"

# More lines, now with the values behind:
row,Compound,EC50
1,"COc1cc2c(cc1OC(C)C)-c1c(-c3cccs3)nc(C(=O)N3CC4CC(CN(C(C)=O)C4)C3)n1CC2 [Example 29c, 1-[7-(9-Isopropoxy-8-methoxy-1-thiophen-2-yl-5,6-dihydro-imidazo[5,1-a]isoquinoline-3-carbonyl)-3,7-diaza-bicyclo[3.3.1]non-3-yl]-ethanone]",21 nM
2,"COc1cc2c(cc1OC(C)C)-c1c(-c3cccs3)nc(C(=O)N3CC4CC(C3)CN(C(=O)C3CCC3)C4)n1CC2 [Example 29d, (7-Cyclobutanecarbonyl-3,7-diaza-bicyclo[3.3.1]non-3-yl)-(9-isopropoxy-8-methoxy-1-thiophen-2-yl-5,6-dihydro-imidazo[5,1-a]isoquinolin-3-yl)-methanone]",5 nM
3,"CCN(C(=O)c1nc(-c2cccs2)c2n1CCc1cc(OC)c(OCCO)cc1-2)C(C)(C)C [Example 34b, 9-(2-Hydroxy-ethoxy)-8-methoxy-1-thiophen-2-yl-5,6-dihydro-imidazo[5,1-a]isoquinoline-3-carboxylic acid tert-butyl-ethyl-amide]",3 nM
4,"COc1cc2c(cc1CC(C)C)-c1c(-c3ncco3)nc(C(=O)N(C)C(C)(C)C)n1CC2 [Example 37f, 9-Isobutyl-8-methoxy-1-oxazol-2-yl-5,6-dihydro-imidazo[5,1-a]isoquinoline-3-carboxylic acid tert-butyl-methyl-amide]",380 nM
5,"COc1cc2c(cc1CC(C)C)-c1c(-c3cncs3)nc(C(=O)N(C)C(C)(C)C)n1CC2 [Example 38, 9-Isobutyl-8-methoxy-1-thiazol-5-yl-5,6-dihydro-imidazo[5,1-a]isoquinoline-3-carboxylic acid tert-butyl-methyl-amide]",13 nM
6,"COc1cc2c(cc1C=C(F)F)-c1c(-c3cccs3)nc(C(=O)N(C)C(C)(C)C)n1CC2 [Example 39, 9-(2,2-Difluoro-vinyl)-8-methoxy-1-thiophen-2-yl-5,6-dihydro-imidazo[5,1-a]isoquinoline-3-carboxylic acid tert-butyl-methyl-amide]",22 nM
7,"CCOc1ccc2c(c1)CCn1c(C(=O)N(C)C(C)(C)C)nc(-c3cccs3)c1-2 [Example 40c, 8-Ethoxy-1-thiophen-2-yl-5,6-dihydro-imidazo[5,1-a]isoquinoline-3-carboxylic acid tert-butyl-methyl-amide]",417 nM
8,"COc1cc2c(cc1CCC(C)(C)O)-c1c(-c3cccs3)nc(C(=O)N(C)C(C)(C)C)n1CC2 [Example 41c, 9-(3-Hydroxy-3-methyl-butyl)-8-methoxy-1-thiophen-2-yl-5,6-dihydro-imidazo[5,1-a]isoquinoline-3-carboxylic acid tert-butyl-methyl-amide]",191 nM
9,"COc1cc2c(cc1-c1cccnc1)-c1c(C(C)(C)C)nc(C(=O)N(C)C(C)(C)C)n1CC2 [Example 44e, 1-tert-Butyl-8-methoxy-9-pyridin-3-yl-5,6-dihydro-imidazo[5,1-a]isoquinoline-3-carboxylic acid tert-butyl-methyl-amide]",33 nM
10,"COc1cc2c(cc1N1CCOCC1)-c1c(-c3cccs3)nc(C(=O)N(C)C(C)(C)C)n1CC2 [Example 45, 8-Methoxy-9-morpholin-4-yl-1-thiophen-2-yl-5,6-dihydro-imidazo[5,1-a]isoquinoline-3-carboxylic acid tert-butyl-methyl-amide]",113 nM
11,"COc1cc2c(cc1NC(=O)C(C)C)-c1c(-c3cccs3)nc(C(=O)N(C)C(C)(C)C)n1CC2 [Example 46, 9-Isobutyrylamino-8-methoxy-1-thiophen-2-yl-5,6-dihydro-imidazo[5,1-a]isoquinoline-3-carboxylic acid tert-butyl-methyl-amide]",148 nM
12,"COc1cc2c(cc1OC(C)C)-c1c(-c3cncs3)nc(C(=O)N(C)C(C)(C)C)n1CC2 [Example 47e, 9-Isopropoxy-8-methoxy-1-thiazol-5-yl-5,6-dihydro-imidazo[5,1-a]isoquinoline-3-carboxylic acid tert-butyl-methyl-amide]",6 nM
13,"COc1cc2c(c(F)c1CC(C)C)-c1c(-c3cccs3)nc(C(=O)N(C)C(C)(C)C)n1CC2 [Example 48j, 10-Fluoro-9-isobutyl-8-methoxy-1-thiophen-2-yl-5,6-dihydro-imidazo[5,1-a]isoquinoline-3-carboxylic acid tert-butyl-methyl-amide]",7 nM
14,"COc1cc2c(cc1OC)-c1c(-c3ccccc3)nc(C(=O)N3CCCCCC3)n1CC2 [Example 49d, Azepan-1-yl-(8,9-dimethoxy-1-phenyl-5,6-dihydro-imidazo[5,1-a]isoquinolin-3-yl)-methanone]",630 nM
